Activity calls are given as the source filed them. No rule for the calls is given here.
Test system: rodent lifetime carcinogenesis bioassay, tumor incidence TD50
Experiment: chronic cancer bioassays in animals – CPDB, compiled studies (AID 1745844)

Structure (SMILES): O=CNNc1nc(-c2ccc([N+](=O)[O-])o2)cs1
- TD50 (hamster, strain Syrian Golden, males, in feed, site: forestomach, lesion: squamous-cell papilloma, dosed 48 weeks, study length 70 weeks): 25.1 mg/kg/day
- TD50 (hamster, strain Syrian Golden, males, in feed, site: urinary bladder, lesion: transitional-cell carcinoma, dosed 48 weeks, study length 70 weeks): 16.6 mg/kg/day
- TD50 (mouse, strain Swiss, females, in feed, site: all sites, lesion: leukemia, dosed 33 weeks, study length 52 weeks): 25.6 mg/kg/day
- TD50 (mouse, strain Swiss, females, in feed, site: all sites, lesion: lymphocytic leukemia, dosed 33 weeks, study length 52 weeks): 11.4 mg/kg/day
- TD50 (mouse, strain Swiss, females, in feed, site: any site (literature study), lesion: several types, types named in the paper, dosed 33 weeks, study length 52 weeks): 2.42 mg/kg/day
- TD50 (mouse, strain Swiss, females, in feed, site: forestomach, lesion: papilloma, dosed 33 weeks, study length 52 weeks): 13.8 mg/kg/day
- TD50 (mouse, strain Swiss, females, in feed, site: forestomach, lesion: squamous-cell papilloma, dosed 33 weeks, study length 52 weeks): 8.85 mg/kg/day
- TD50 (mouse, strain Swiss, females, in feed, site: lung, lesion: alveolar-cell carcinoma, dosed 33 weeks, study length 52 weeks): 67.1 mg/kg/day
- TD50 (rat, strain Buffalo, females, in feed, site: kidney, lesion: several types, types named in the paper, dosed 46 weeks, study length 64 weeks): 17.5 mg/kg/day
- TD50 (rat, strain Buffalo, females, in feed, site: kidney, lesion: tubular adenoma, dosed 46 weeks, study length 64 weeks): 98.6 mg/kg/day
- TD50 (rat, strain Buffalo, females, in feed, site: kidney, lesion: tubular-cell adenocarcinoma, dosed 46 weeks, study length 64 weeks): 44.1 mg/kg/day
- TD50 (rat, strain Buffalo, females, in feed, site: liver, lesion: cystadenoma, dosed 46 weeks, study length 64 weeks): 39.1 mg/kg/day
- TD50 (rat, strain Buffalo, females, in feed, site: mammary gland, lesion: adenocarcinoma, dosed 46 weeks, study length 64 weeks): 13.1 mg/kg/day
- TD50 (rat, strain Buffalo, females, in feed, site: mammary gland, lesion: adenofibroma, dosed 46 weeks, study length 64 weeks): 80.5 mg/kg/day
- TD50 (rat, strain Buffalo, females, in feed, site: mammary gland, lesion: several types, types named in the paper, dosed 46 weeks, study length 64 weeks): 5.54 mg/kg/day
- TD50 (rat, strain Holtzman albino (Sprague-Dawley derived), females, in feed, site: cecum, lesion: adenocarcinoma, dosed 44 weeks, study length 60 weeks): 210 mg/kg/day
- TD50 (rat, strain Holtzman albino (Sprague-Dawley derived), females, in feed, site: ear canal, lesion: squamous-cell carcinoma, dosed 44 weeks, study length 60 weeks): 100 mg/kg/day
- TD50 (rat, strain Holtzman albino (Sprague-Dawley derived), females, in feed, site: kidney, lesion: adenoma, dosed 44 weeks, study length 60 weeks): 17.6 mg/kg/day
- TD50 (rat, strain Holtzman albino (Sprague-Dawley derived), females, in feed, site: kidney, lesion: carcinoma, dosed 44 weeks, study length 60 weeks): 78.5 mg/kg/day
- TD50 (rat, strain Holtzman albino (Sprague-Dawley derived), females, in feed, site: liver, lesion: hemangioendothelial sarcoma, dosed 44 weeks, study length 60 weeks): 428 mg/kg/day (inactive)
- TD50 (rat, strain Holtzman albino (Sprague-Dawley derived), females, in feed, site: mammary tissue, wider than the gland, lesion: one or several types, types not named, dosed 44 weeks, study length 60 weeks): 5.5 mg/kg/day
- TD50 (rat, strain Holtzman albino (Sprague-Dawley derived), females, in feed, site: small intestine, lesion: adenocarcinoma, dosed 44 weeks, study length 60 weeks): 78.5 mg/kg/day
- TD50 (rat, strain Sprague-Dawley, females, in feed, site: all sites, lesion: lymphoblastic lymphoma, dosed 45 weeks, study length 75 weeks): 184 mg/kg/day
- TD50 (rat, strain Sprague-Dawley, females, in feed, site: any site (literature study), lesion: several types, types named in the paper, dosed 45 weeks, study length 75 weeks): 3.79 mg/kg/day
- TD50 (rat, strain Sprague-Dawley, females, in feed, site: forestomach, lesion: squamous-cell papilloma, dosed 45 weeks, study length 75 weeks): 65.4 mg/kg/day
- TD50 (rat, strain Sprague-Dawley, females, in feed, site: kidney/pelvis, lesion: transitional-cell carcinoma, dosed 45 weeks, study length 75 weeks): 137 mg/kg/day
- TD50 (rat, strain Sprague-Dawley, females, in feed, site: kidney, lesion: renal-cell carcinoma, dosed 45 weeks, study length 75 weeks): 65.4 mg/kg/day
- TD50 (rat, strain Sprague-Dawley, females, in feed, site: kidney, lesion: several types, types named in the paper, dosed 46 weeks, study length 64 weeks): 9.96 mg/kg/day
- TD50 (rat, strain Sprague-Dawley, females, in feed, site: kidney, lesion: tubular adenoma, dosed 46 weeks, study length 64 weeks): 50.7 mg/kg/day
- TD50 (rat, strain Sprague-Dawley, females, in feed, site: kidney, lesion: tubular-cell adenocarcinoma, dosed 46 weeks, study length 64 weeks): 33.9 mg/kg/day
- TD50 (rat, strain Sprague-Dawley, females, in feed, site: liver, lesion: cystadenoma, dosed 46 weeks, study length 64 weeks): 43.9 mg/kg/day
- carcinogen call (rat, strain Sprague-Dawley, females, in feed, site: liver, lesion: one or several types, types not named, dosed 45 weeks, study length 75 weeks): negative (inactive)
- TD50 (rat, strain Sprague-Dawley, females, in feed, site: liver, lesion: several types, types named in the paper, dosed 46 weeks, study length 64 weeks): 30.1 mg/kg/day
- TD50 (rat, strain Sprague-Dawley, females, in feed, site: mammary gland, lesion: adenocarcinoma, dosed 45 weeks, study length 75 weeks): 3.54 mg/kg/day
- TD50 (rat, strain Sprague-Dawley, females, in feed, site: mammary gland, lesion: adenocarcinoma, dosed 46 weeks, study length 64 weeks): 19.5 mg/kg/day
- TD50 (rat, strain Sprague-Dawley, females, in feed, site: mammary gland, lesion: adenofibroma, dosed 46 weeks, study length 64 weeks): 52.8 mg/kg/day
- TD50 (rat, strain Sprague-Dawley, females, in feed, site: mammary gland, lesion: several types, types named in the paper, dosed 46 weeks, study length 64 weeks): 5.85 mg/kg/day
- TD50 (rat, strain Sprague-Dawley, males, in feed, site: kidney/pelvis, lesion: transitional-cell carcinoma, dosed 46 weeks, study length 64 weeks): 69.9 mg/kg/day
- TD50 (rat, strain Sprague-Dawley, males, in feed, site: kidney, lesion: several types, types named in the paper, dosed 46 weeks, study length 64 weeks): 5.82 mg/kg/day
- TD50 (rat, strain Sprague-Dawley, males, in feed, site: kidney, lesion: tubular adenoma, dosed 46 weeks, study length 64 weeks): 47.6 mg/kg/day
- TD50 (rat, strain Sprague-Dawley, males, in feed, site: kidney, lesion: tubular-cell adenocarcinoma, dosed 46 weeks, study length 64 weeks): 19.3 mg/kg/day
- TD50 (rat, strain Sprague-Dawley, males, in feed, site: liver, lesion: cystadenoma, dosed 46 weeks, study length 64 weeks): 35.3 mg/kg/day
- TD50 (rat, strain Sprague-Dawley, males, in feed, site: mammary gland, lesion: adenofibroma, dosed 46 weeks, study length 64 weeks): 46.2 mg/kg/day

Structure (SMILES): O=C(O)O
- TD50 (mouse, strain B6C3F1, males, in drinking water, site: liver, lesion: hepatocellular adenoma, dosed 52 weeks, study length 52 weeks): 1330 mg/kg/day (inactive)
- TD50 (rat, strain F344/DuCrj, males, in feed, site: urinary bladder, lesion: carcinoma, dosed 104 weeks, study length 104 weeks): 5350 mg/kg/day (inactive)
- TD50 (rat, strain Wistar-random, females, in feed, site: urinary bladder, lesion: several types, types named in the paper, dosed 130 weeks, study length 130 weeks): 12800 mg/kg/day
- TD50 (rat, strain Wistar-random, females, in feed, site: urinary bladder, lesion: transitional-cell carcinoma, dosed 130 weeks, study length 130 weeks): 37100 mg/kg/day
- TD50 (rat, strain Wistar-random, females, in feed, site: urinary bladder, lesion: transitional-cell papilloma, dosed 78 weeks, study length 78 weeks): 8280 mg/kg/day
- TD50 (rat, strain Wistar-random, females, in feed, site: urinary bladder, lesion: transitional-cell papilloma, dosed 130 weeks, study length 130 weeks): 20700 mg/kg/day
- TD50 (rat, strain Wistar-random, males, in feed, site: urinary bladder, lesion: several types, types named in the paper, dosed 78 weeks, study length 78 weeks): 6400 mg/kg/day
- TD50 (rat, strain Wistar-random, males, in feed, site: urinary bladder, lesion: several types, types named in the paper, dosed 121 weeks, study length 121 weeks): 13200 mg/kg/day
- TD50 (rat, strain Wistar-random, males, in feed, site: urinary bladder, lesion: transitional-cell carcinoma, dosed 78 weeks, study length 78 weeks): 12900 mg/kg/day
- TD50 (rat, strain Wistar-random, males, in feed, site: urinary bladder, lesion: transitional-cell carcinoma, dosed 121 weeks, study length 121 weeks): 54400 mg/kg/day
- TD50 (rat, strain Wistar-random, males, in feed, site: urinary bladder, lesion: transitional-cell papilloma, dosed 78 weeks, study length 78 weeks): 13100 mg/kg/day
- TD50 (rat, strain Wistar-random, males, in feed, site: urinary bladder, lesion: transitional-cell papilloma, dosed 121 weeks, study length 121 weeks): 17800 mg/kg/day

Structure (SMILES): CC(=O)Nc1ccc2c(c1)C(=O)c1ccccc1-2
- TD50 (rat, strain Buffalo, females, in feed, site: ear duct, lesion: squamous-cell carcinoma, dosed 86 weeks, study length 86 weeks): 32 mg/kg/day
- TD50 (rat, strain Buffalo, females, in feed, site: liver, lesion: hepatoma, dosed 86 weeks, study length 86 weeks): 102 mg/kg/day
- TD50 (rat, strain Buffalo, females, in feed, site: mammary gland, lesion: adenocarcinoma, dosed 86 weeks, study length 86 weeks): 6.17 mg/kg/day

Structure (SMILES): Cc1ccc2c(c1)C(N1CCN(C)CC1)=Nc1ccccc1S2
- carcinogen call (rat, strain albino, females, in feed, site: mammary gland, lesion: fibroadenoma, dosed 78 weeks, study length 78 weeks): negative (inactive)
- carcinogen call (rat, strain albino, males, in feed, site: pituitary gland, lesion: adenoma, dosed 78 weeks, study length 78 weeks): negative (inactive)

Structure (SMILES): CC(=O)c1ccc(S(=O)(=O)NC(=O)NC2CCCCC2)cc1
- carcinogen call (mouse, strain B6C3F1, females, in feed, site: any site (literature study), lesion: several types, types named in the paper, dosed 103 weeks, study length 107 weeks): negative (inactive)
- TD50 (mouse, strain B6C3F1, males, in feed, site: any site (literature study), lesion: several types, types named in the paper, dosed 103 weeks, study length 107 weeks): 2370 mg/kg/day (inactive)
- carcinogen call (rat, strain Fischer 344, females, in feed, site: any site (literature study), lesion: several types, types named in the paper, dosed 103 weeks, study length 106 weeks): negative (inactive)
- TD50 (rat, strain Fischer 344, males, in feed, site: all sites, lesion: leukemia, dosed 103 weeks, study length 105 weeks): 527 mg/kg/day (inactive)
- TD50 (rat, strain Fischer 344, males, in feed, site: any site (literature study), lesion: several types, types named in the paper, dosed 103 weeks, study length 105 weeks): 2120 mg/kg/day
- TD50 (rat, strain Fischer 344, males, in feed, site: liver, lesion: hepatocellular adenoma + hepatocellular carcinoma + neoplastic nodule, dosed 103 weeks, study length 105 weeks): 16600 mg/kg/day

Structure (SMILES): CNC(=O)c1c(N(C)N=O)ncn1C
- TD50 (rat, strain BD IX, both sexes, in drinking water, site: nasal cavity, olfactory epithelium, lesion: neuroepithelioma, dosed 73 weeks, study length 79 weeks): 1.03 mg/kg/day
- TD50 (rat, strain BD IX, both sexes, in drinking water, site: nasal cavity, lesion: several types, types named in the paper, dosed 73 weeks, study length 79 weeks): 1 mg/kg/day
- TD50 (rat, strain BD IX, both sexes, in drinking water, site: nasal cavity, lesion: squamous-cell carcinoma, dosed 73 weeks, study length 79 weeks): 5.56 mg/kg/day

Structure (SMILES): CN(N=O)c1ccccn1
- TD50 (rat, strain BD VI, females, by gavage, site: any site (literature study), lesion: benign tumor, dosed 72 weeks, study length 72 weeks): 3.05 mg/kg/day
- TD50 (rat, strain BD VI, females, by gavage, site: any site (literature study), lesion: malignant tumor, dosed 72 weeks, study length 72 weeks): 0.668 mg/kg/day
- TD50 (rat, strain BD VI, females, by gavage, site: any site (literature study), lesion: several types, types named in the paper, dosed 72 weeks, study length 72 weeks): 0.28 mg/kg/day
- TD50 (rat, strain BD VI, females, by gavage, site: esophagus, lesion: several types, types named in the paper, dosed 72 weeks, study length 72 weeks): 0.214 mg/kg/day

Source: PubChem BioAssay AID1745844 (Carcinogenic Potency Database (CPDB), 2022)
